Experimental data reported in the OPERA property sets (Mansouri et al. 2018).
≈ marks a conversion by molar mass, not a printed value.

Details: for solubility: 25 °C

SMILES	logP	solubility
COc1cc(C=O)cc(OC)c1OC	1.39	
COc1ccc(C=O)cc1OC		38 mM (≈ 6320 µg/mL)
O=Cc1ccc(O)c(O)c1	1.09	
O=Cc1ccc(O)cc1		106 mM (≈ 12900 µg/mL)
COc1ccc(OC)c(C=O)c1	1.91	4.78 mM (≈ 795 µg/mL)

Now from value to compound:

logP	solubility	SMILES
1.29		O=Cc1cccc(O)c1
0.54	99.9 mM (≈ 13800 µg/mL)	O=Cc1cc(O)ccc1O
1.63		CCOc1ccc(C=O)cc1OC
1.83	6.62 mM (≈ 1330 µg/mL)	O=Cc1ccc(O)c(Br)c1
1.88		CC(C)OC(=O)COc1ccc(C=O)cc1
2.5	0.562 mM (≈ 113 µg/mL)	O=Cc1cc(O)cc(Br)c1
3.35	0.158 mM (≈ 41.8 µg/mL)	O=Cc1cc(Br)ccc1Br
